Key:
[1] = target: T1, human PDE4B1 (Homo sapiens, UniProt Q07343); assay: cAMP HTRF assay to determine the activity of hPDE4B1; type: biochemical; settings: inhibition of PDE4B at a test concentration of 1 μM
T1 construct: host or cells: Sf9 cells
Outline: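 […], using HTRF quantitation of residual cAMP after 1 mM IBMX stop and 60 min detection. Enzyme was Sf9-expressed human PDE4B1 incubated 30 min at room temperature with 40 nM final cAMP at pH 7.8.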

[2] = target: T1, human PDE4B1; assay: TR-FRET assay using the LANCE Ultra cAMP kit to determine the activity of hPDE4B1; type: biochemical; settings: read-out: Inhibition in % (inhibition of PDE4B); for inhibition at 1 µM: test concentration 1 μM; for inhibition at 10 µM: test concentration 10 μM (marked in cell)
Outline: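 Sf9-expressed recombinant human PDE4B1 (0.96 U) hydrolyses 500 nM cAMP for 30 minutes at room temperature in 50 mM Tris-HCl, 50 mM MgCl2, 5 mM DTT, pH 8.5. The reaction is stopped with IBMX, and residual cAMP is measured by TR-FRET (665/620 ratio). IC50 comes from ten concentrations.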

T1 sequence (Q07343 whole entry): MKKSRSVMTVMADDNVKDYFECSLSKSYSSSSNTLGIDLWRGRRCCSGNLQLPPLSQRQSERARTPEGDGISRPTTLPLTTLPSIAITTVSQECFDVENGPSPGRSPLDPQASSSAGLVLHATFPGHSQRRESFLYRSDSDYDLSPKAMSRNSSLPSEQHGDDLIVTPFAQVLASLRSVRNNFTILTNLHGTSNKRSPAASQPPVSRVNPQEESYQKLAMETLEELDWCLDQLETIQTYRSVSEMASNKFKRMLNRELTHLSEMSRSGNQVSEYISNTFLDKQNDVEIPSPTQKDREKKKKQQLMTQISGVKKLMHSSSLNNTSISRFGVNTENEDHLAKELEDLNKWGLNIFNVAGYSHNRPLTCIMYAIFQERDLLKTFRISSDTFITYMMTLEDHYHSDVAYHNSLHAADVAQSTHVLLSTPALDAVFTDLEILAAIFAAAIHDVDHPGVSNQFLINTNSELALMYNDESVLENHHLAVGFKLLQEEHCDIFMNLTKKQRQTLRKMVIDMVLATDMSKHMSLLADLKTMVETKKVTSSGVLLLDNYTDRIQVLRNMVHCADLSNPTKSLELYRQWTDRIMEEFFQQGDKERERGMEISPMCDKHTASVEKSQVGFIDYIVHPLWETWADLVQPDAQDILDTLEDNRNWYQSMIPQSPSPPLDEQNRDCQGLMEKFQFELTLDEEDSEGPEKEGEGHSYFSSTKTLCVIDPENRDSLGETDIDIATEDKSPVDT

| SMILES | melting point | inhibition at 1 µM [1] | inhibition at 1 µM [2] | inhibition at 10 µM [2] |
| --- | --- | --- | --- | --- |
| C[S+]([O-])c1cn(-c2ncc(-c3cccc(Cl)c3)cn2)c2cc(C(=O)N3CCOCC3)ccc12 (centres unmarked) [Example 194, (1-(5-(3-Chlorophenyl)pyrimidin-2-yl)-3-(methylsulfinyl)-1H-indol-6-yl)(morpholino)methanone] | 211 to 213 °C | 92% |  |  |
| C[S+]([O-])c1cn(-c2ncc(-c3cc(C#N)cs3)cn2)c2cc(C(=O)N3CCOCC3)ccc12 (centres unmarked) [Example 195, 5-(2-(3-(Methylsulfinyl)-6-(morpholine-4-carbonyl)-1H-indol-1-yl)pyrimidin-5-yl)thiophene-3-carbonitrile] | 253 to 256 °C |  | 95% |  |
| C[S+]([O-])c1cn(-c2ncc(-c3cc(C(N)=O)cs3)cn2)c2cc(C(=O)N3CCOCC3)ccc12 (centres unmarked) [Example 196, 5-(2-(3-(Methylsulfinyl)-6-(morpholine-4-carbonyl)-1H-indol-1-yl)pyrimidin-5-yl)thiophene-3-carboxamide] | 302 to 305 °C |  | 96% |  |
| Cc1csc(-c2cnc(-n3cc([S+](C)[O-])c4ccc(C(=O)N5CCOCC5)cc43)nc2)c1 (centres unmarked) [Example 197] | 232 to 235 °C |  | 96% |  |
| Cc1ccc(F)c(-c2cnc(-n3cc([S+](C)[O-])c4ccc(C(=O)N5CCOCC5)cc43)nc2)c1 (centres unmarked) [Example 198] | 120 to 123 °C | 114% |  |  |
| C[S+]([O-])c1cn(-c2ncc(-c3ccc(C(N)=O)cn3)cn2)c2cc(C(=O)N3CCOCC3)ccc12 (centres unmarked) [Example 199, 6-(2-(3-(Methylsulfinyl)-6-(morpholine-4-carbonyl)-1H-indol-1-yl)pyrimidin-5-yl)nicotinamide] | 288 to 290 °C | 99% |  |  |
| C[S+]([O-])c1cn(-c2ncc(-c3ccc(F)cn3)cn2)c2cc(C(=O)N3CCOCC3)ccc12 (centres unmarked) [Example 200, (1-(5-(5-Fluoropyridin-2-yl)pyrimidin-2-yl)-3-(methylsulfinyl)-1H-indol-6-yl)(morpholino)methanone] | 244 to 248 °C | 87% |  |  |
| C[S+]([O-])c1cn(-c2ncc(-c3ncccc3F)cn2)c2cc(C(=O)N3CCOCC3)ccc12 (centres unmarked) [Example 201, (1-(5-(3-Fluoropyridin-2-yl)pyrimidin-2-yl)-3-(methylsulfinyl)-1H-indol-6-yl)(morpholino)methanone] | 222 to 225 °C | 81% |  |  |
| C[S+]([O-])c1cn(-c2ncc(-c3cc(C(N)=O)ccn3)cn2)c2cc(C(=O)N3CCOCC3)ccc12 (centres unmarked) [Example 202, 2-(2-(3-(Methylsulfinyl)-6-(morpholine-4-carbonyl)-1H-indol-1-yl)pyrimidin-5-yl)isonicotinamide] | 303 to 306 °C | 94% |  |  |
| C[S+]([O-])c1cn(-c2ncc(-c3nc(C#N)cs3)cn2)c2cc(C(=O)N3CCOCC3)ccc12 (centres unmarked) [Example 203, 2-(2-(3-(Methylsulfinyl)-6-(morpholine-4-carbonyl)-1H-indol-1-yl)pyrimidin-5-yl)thiazole-4-carbonitrile] | 273 to 276 °C |  | 67% |  |
| C[S+]([O-])c1cn(-c2ncc(-c3nc(C(N)=O)cs3)cn2)c2cc(C(=O)N3CCOCC3)ccc12 (centres unmarked) [Example 204, 2-(2-(3-(Methylsulfinyl)-6-(morpholine-4-carbonyl)-1H-indol-1-yl)pyrimidin-5-yl)thiazole-4-carboxamide] | 286 to 288 °C |  | 82% |  |
| Cc1csc(-c2cnc(-n3cc([S+](C)[O-])c4ccc(C(=O)N5CCOCC5)cc43)nc2)n1 (centres unmarked) [Example 205, (3-(Methylsulfinyl)-1-(5-(4-methylthiazol-2-yl)pyrimidin-2-yl)-1H-indol-6-yl)(morpholino)methanone] | 247 to 249 °C |  | 93% |  |
| Cc1cnc(-c2cnc(-n3cc([S+](C)[O-])c4ccc(C(=O)N5CCOCC5)cc43)nc2)s1 (centres unmarked) [Example 206, (3-(Methylsulfinyl)-1-(5-(5-methylthiazol-2-yl)pyrimidin-2-yl)-1H-indol-6-yl)(morpholino)methanone] | 257 to 260 °C |  | 85% |  |
| C[S+]([O-])c1cn(-c2ncc(-c3ncc(C(N)=O)s3)cn2)c2cc(C(=O)N3CCOCC3)ccc12 (centres unmarked) [Example 208, 2-(2-(3-(Methylsulfinyl)-6-(morpholine-4-carbonyl)-1H-indol-1-yl)pyrimidin-5-yl)thiazole-5-carboxamide] | 286 to 289 °C |  | 82% |  |
| C[S+]([O-])c1cn(-c2ncc(-c3cc(N)ccn3)cn2)c2cc(C(=O)N3CCOCC3)ccc12 (centres unmarked) [Example 209, 2-(1-(5-(4-Aminopyridin-2-yl)pyrimidin-2-yl)-3-(methylsulfinyl)-1H-indol-6-yl)(morpholino)methanone] | 293 to 297 °C | 101% |  |  |
| CN(C)c1ccnc(-c2cnc(-n3cc([S+](C)[O-])c4ccc(C(=O)N5CCOCC5)cc43)nc2)c1 (centres unmarked) [Example 210, (1-(5-(4-(Dimethylamino)pyridin-2-yl)pyrimidin-2-yl)-3-(methylsulfinyl)-1H-indol-6-yl)(morpholino)methanone] | 213 to 217 °C | 96% |  |  |
| C[S+]([O-])c1cn(-c2ncc(-c3nccs3)cn2)c2cc(C(=O)N3CCOCC3)ccc12 (centres unmarked) [Example 211, (3-(Methylsulfinyl)-1-(5-(thiazol-2-yl)pyrimidin-2-yl)-1H-indol-6-yl)(morpholino)methanone] | 235 to 237 °C | 85% |  |  |
| C[S+]([O-])c1cn(-c2ncc(-c3ccnnc3)cn2)c2cc(C(=O)N3CCOCC3)ccc12 (centres unmarked) [Example 212, (3-(Methylsulfinyl)-1-(5-(pyridazin-4-yl)pyrimidin-2-yl)-1H-indol-6-yl)(morpholino)methanone] | 278 to 282 °C | 33% |  |  |
| C[S+]([O-])c1cn(-c2ncc(-c3ccccc3F)cn2)c2cc(C(=O)N3CCO[C@@H](CO)C3)ccc12 (stereo partly drawn) [Example 219, (1-(5-(2-Fluorophenyl)pyrimidin-2-yl)-3-(methylsulfinyl)-1H-indol-6-yl)((R)-2-(hydroxymethyl)morpholino)methanone] | 206 to 210 °C |  | 87% |  |
| C[S+]([O-])c1cn(-c2ncc(-c3ccccc3F)cn2)c2cc(C(=O)N3CCO[C@H](CO)C3)ccc12 (stereo partly drawn) [Example 220, (1-(5-(2-Fluorophenyl)pyrimidin-2-yl)-3-(methylsulfinyl)-1H-indol-6-yl)((S)-2-(hydroxymethyl)morpholino)methanone] | 194 to 198 °C |  | 93% |  |
| CN(CCN)C(=O)c1ccc2c([S+](C)[O-])cn(-c3ncc(-c4ccccc4F)cn3)c2c1 (centres unmarked) [Example 221, N-(2-Aminoethyl)-1-(5-(2-fluorophenyl)pyrimidin-2-yl)-N-methyl-3-(methylsulfinyl)-1H-indole-6-carboxamide] | 88 to 92 °C |  | 94% |  |
| CCc1ccnc(-c2cnc(-n3cc([S+](C)[O-])c4ccc(C(=O)N5CC[C@@H](N)C5)cc43)nc2)c1 (stereo partly drawn) [Example 337, ((R)-3-Aminopyrrolidin-1-yl)(1-(5-(4-ethylpyridin-2-yl)pyrimidin-2-yl)-3-(methylsulfinyl)-1H-indol-6-yl)methanone] | 160 to 163 °C |  |  | 102% |
| CC(C)c1ccnc(-c2cnc(-n3cc([S+](C)[O-])c4ccc(C(=O)N5CC[C@@H](N)C5)cc43)nc2)c1 (stereo partly drawn) [Example 338, ((R)-3-Aminopyrrolidin-1-yl)(1-(5-(4-isopropylpyridin-2-yl)pyrimidin-2-yl)-3-(methylsulfinyl)-1H-indol-6-yl)methanone] | 264 to 268 °C |  |  | 99% |
| C[S+]([O-])c1cn(-c2ncc(-c3cc(C4CC4)ccn3)cn2)c2cc(C(=O)N3CC[C@@H](N)C3)ccc12 (stereo partly drawn) [Example 339, ((R)-3-Aminopyrrolidin-1-yl)(1-(5-(4-cyclopropylpyridin-2-yl)pyrimidin-2-yl)-3-(methylsulfinyl)-1H-indol-6-yl)methanone] | 278 to 281 °C |  |  | 105% |
| Cc1ccnc(-c2cnc(-n3cc(S(C)(=O)=O)c4ccc(C(=O)N5CC[C@@H](N)C5)cc43)nc2)c1 [Example 340, (R)-(3-Aminopyrrolidin-1-yl)(1-(5-(4-methylpyridin-2-yl)pyrimidin-2-yl)-3-(methylsulfonyl)-1H-indol-6-yl)methanone] | 157 to 160 °C |  |  | 100% |
| CNCCN(C)C(=O)c1ccc2c([S+](C)[O-])cn(-c3ncc(-c4ccccc4F)cn3)c2c1 (centres unmarked) [Example 346, 1-(5-(2-Fluorophenyl)pyrimidin-2-yl)-N-methyl-N-(2-(methylamino)ethyl)-3-(methylsulfinyl)-1H-indole-6-carboxamide] | 122 to 126 °C |  | 87% |  |
| C[S+]([O-])c1cn(-c2ncc(-c3ccccc3F)cn2)c2cc(C(=O)N3CC4CCC3CN4)ccc12 (centres unmarked) [Example 347, 2,5-Diazabicyclo[2.2.2]octan-2-yl(1-(5-(2-fluorophenyl)pyrimidin-2-yl)-3-(methylsulfinyl)-1H-indol-6-yl)methanone] | 141 to 144 °C |  |  | 97% |
| C[S+]([O-])c1cn(-c2ncc(-c3ccccc3F)cn2)c2cc(C(=O)N3C4CCC3CNC4)ccc12 (centres unmarked) [Example 348, 3,8-Diazabicyclo[3.2.1]octan-8-yl(1-(5-(2-fluorophenyl)pyrimidin-2-yl)-3-(methylsulfinyl)-1H-indol-6-yl)methanone] | 237 to 240 °C |  | 99% |  |
